pIC50: −log10 of the molar value. Structures can show the parent of a compound that is named as a salt.
Target: IRAK4 (Homo sapiens (Human), UniProt Q9NWZ3)
Test: IRAK4 kinase activity, IMAP fluorescence polarization assay
Format: biochemical
Conditions: 100 μM ATP, 0.5 nM GST tagged IRAK4; read-out: IRAK4 IC50
Procedure: The kinase activity of IRAK4 is determined by its ability to catalyze the phosphorylation of a fluorescent polypeptide substrate. The extent of phosphorylation is measured using IMAP technology (Molecular Devices) where the phosphorylated fluorescent substrate binds to the large M(III)-based nanoparticles which reduces the rotational speed of the substrate and thus increases its fluorescent polarization (FP).
Assay Procedure: A 20 μl reaction mixture contains 10 mM TriHCl, pH 7.2, 0.5 nM GST tagged IRAK4 (SignalChem), 100 nM fluorescent peptide substrate (RP7030, Molecular Devices), 100 μM ATP, 1 mM DTT, 1 mM MgCl2, and 0.01% Tween 20. The reaction is initiated by the addition of ATP. After incubation for 30 minutes at 25° C., 60 μl of Progressive IMAP Reagent (Molecular Devices) is added to stop the reaction. Change in RP7030's FP is determined by a FP reader (Analyst HT, LJL BioSystems)

Sequence of IRAK4 (Q9NWZ3 whole entry): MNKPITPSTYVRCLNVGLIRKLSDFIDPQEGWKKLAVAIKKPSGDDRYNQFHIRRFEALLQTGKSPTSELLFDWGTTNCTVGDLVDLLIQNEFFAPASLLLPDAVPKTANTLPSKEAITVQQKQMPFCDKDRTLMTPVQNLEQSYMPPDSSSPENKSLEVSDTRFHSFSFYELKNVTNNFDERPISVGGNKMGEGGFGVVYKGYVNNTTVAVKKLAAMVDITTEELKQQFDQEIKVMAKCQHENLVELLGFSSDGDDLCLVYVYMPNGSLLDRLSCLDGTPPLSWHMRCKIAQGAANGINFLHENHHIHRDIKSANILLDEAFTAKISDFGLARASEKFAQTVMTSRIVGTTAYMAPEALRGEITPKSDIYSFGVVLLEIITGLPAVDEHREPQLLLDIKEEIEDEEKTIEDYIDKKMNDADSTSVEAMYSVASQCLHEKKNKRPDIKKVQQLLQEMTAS

| Structure (SMILES) | pIC50 |
| --- | --- |
| O=c1[nH]c(N2CCCC2)nc(N[C@@H]2C[C@H](CO)[C@@H](O)[C@H]2O)c1-c1nc2ccccc2s1 [Example 25, 5-(Benzo[d]thiazol-2-yl)-6-(((1R,2S,3R,4R)-2,3-dihydroxy-4-(hydroxymethyl)cyclopentyl)amino)-2-(pyrrolidin-1-yl)pyrimidin-4(3H)-one.HCl] | 7.74 |
| O=c1[nH]c(N2CCC(F)(F)CC2)nc(N[C@@H]2C[C@H](CO)[C@@H](O)[C@H]2O)c1-c1nc2ccccc2s1 [Example 27, 5-(Benzo[d]thiazol-2-yl)-2-(4,4-difluoropiperidin-1-yl)-6-(((1R,2S,3R,4R)-2,3-dihydroxy-4-(hydroxymethyl)cyclopentyl)amino)pyrimidin-4(3H)-one.HCl] | 6.87 |
| O=c1[nH]c(N2CCC2)nc(N[C@@H]2C[C@H](CO)[C@@H](O)[C@H]2O)c1-c1nc2ccccc2s1 [Example 31, 2-(Azetidin-1-yl)-5-(benzo[d]thiazol-2-yl)-6-(((1R,2S,3R,4R)-2,3-dihydroxy-4-(hydroxymethyl)cyclopentyl)amino)pyrimidin-4(3H)-one.HCl] | 7.17 |
| O=c1[nH]c(NC2CNC2)nc(N[C@@H]2C[C@H](CO)[C@@H](O)[C@H]2O)c1-c1nc2ccccc2s1 [Example 36, 2-(Azetidin-3-ylamino)-5-(benzo[d]thiazol-2-yl)-6-(((1R,2S,3R,4R)-2,3-dihydroxy-4-(hydroxymethyl)cyclopentyl)amino)pyrimidin-4(3H)-one.HCl] | 6.18 |
| O=c1[nH]c(N[C@@H]2CCCNC2)nc(N[C@@H]2C[C@H](CO)[C@@H](O)[C@H]2O)c1-c1nc2ccccc2s1 [Example 38, 5-(Benzo[d]thiazol-2-yl)-6-(((1R,2S,3R,4R)-2,3-dihydroxy-4-(hydroxymethyl)cyclopentyl)amino)-2-((R)-piperidin-3-ylamino)pyrimidin-4(3H)-one.HCl] | 5.29 |
| COCCCNc1nc(N[C@@H]2C[C@H](CO)[C@@H](O)[C@H]2O)c(-c2nc3ccccc3s2)c(=O)[nH]1 [Example 40, 5-(Benzo[d]thiazol-2-yl)-6-(((1R,2S,3R,4R)-2,3-dihydroxy-4-(hydroxymethyl)cyclopentyl)amino)-2-((3-methoxypropyl)amino)pyrimidin-4(3H)-one HCl] | 7.22 |
| C[C@@]1(O)[C@H](O)[C@@H](CO)C[C@H]1Nc1nc(NC2CCC2)[nH]c(=O)c1-c1nc2ccccc2s1 [Example 41, 5-(Benzo[d]thiazol-2-yl)-2-(cyclobutylamino)-6-((1R,2S,3R,4R)-2,3-dihydroxy-4-(hydroxymethyl)-2-methylcyclopentylamino)pyrimidin-4(3H)-one.HCl] | 6.34 |
| CC(C)[C@H]1C[C@@H](Nc2nc(N3CCC(c4cncnc4)CC3)[nH]c(=O)c2-c2nc3ccccc3s2)[C@H](O)[C@@H]1O [Example 44, 5-(Benzo[d]thiazol-2-yl)-6-((1R,2S,3R,4R)-2,3-dihydroxy-4-isopropylcyclopentylamino)-2-(4-(pyrimidin-5-yl)piperidin-1-yl)pyrimidin-4(3H)-one.HCl] | 7.64 |
| C[C@H]1C[C@@H](Nc2nc(N3CCOCC3)[nH]c(=O)c2-c2nc3ccccc3s2)[C@H](O)[C@@H]1O [Example 47, 5-(Benzo[d]thiazol-2-yl)-6-((1R,2S,3R,4S)-2,3-dihydroxy-4-methylcyclopentylamino)-2-morpholinopyrimidin-4(3H)-one.HCl] | 7.64 |

More lines, in order of rising pIC50, values ahead:

| pIC50 | Structure (SMILES) |
| --- | --- |
| 5.37 | O=c1[nH]c(N[C@H]2CCCNC2)nc(N[C@@H]2C[C@H](CO)[C@@H](O)[C@H]2O)c1-c1nc2ccccc2s1 [Example 39, 5-(Benzo[d]thiazol-2-yl)-6-(((1R,2S,3R,4R)-2,3-dihydroxy-4-(hydroxymethyl)cyclopentyl)amino)-2-((S)-piperidin-3-ylamino)pyrimidin-4(3H)-one.HCl] |
| 5.65 | O=c1[nH]c(NC2CCC2)nc(N[C@@H]2CC[C@@H](O)[C@H]2O)c1-c1nc2ccccc2s1 [Example 48, 5-(Benzo[d]thiazol-2-yl)-2-(cyclobutylamino)-6-((1R,2S,3R)-2,3-dihydroxycyclopentylamino)pyrimidin-4(3H)-one.HCl] |
| 5.70 | O=c1[nH]c(NC2CCNC2)nc(N[C@@H]2C[C@H](CO)[C@@H](O)[C@H]2O)c1-c1nc2ccccc2s1 (stereo partly drawn) [Example 37, 5-(Benzo[d]thiazol-2-yl)-6-(((1R,2S,3R,4R)-2,3-dihydroxy-4-(hydroxymethyl)cyclopentyl)amino)-2-(pyrrolidin-3-ylamino)pyrimidin-4(3H)-one.HCl] |
| 6.07 | CC(C)[C@H]1C[C@@H](Nc2nc[nH]c(=O)c2-c2nc3ccccc3s2)[C@H](O)[C@@H]1O [Example 43, 5-(Benzo[d]thiazol-2-yl)-6-((1R,2S,3R,4R)-2,3-dihydroxy-4-isopropylcyclopentylamino)pyrimidin-4(3H)-one.HCl] |
| 6.27 | CN(C)c1nc(N[C@@H]2C[C@H](CO)[C@@H](O)[C@H]2O)c(-c2nc3ccccc3s2)c(=O)[nH]1 [Example 30, 5-(Benzo[d]thiazol-2-yl)-6-(((1R,2S,3R,4R)-2,3-dihydroxy-4-(hydroxymethyl)cyclopentyl)amino)-2-(dimethylamino)pyrimidin-4(3H)-one.HCl] |
| 6.53 | Cc1cccc(-c2c(N[C@@H]3C[C@H](CO)[C@@H](O)[C@H]3O)nc(N3CCCCC3)[nH]c2=O)n1 [Example 35, 6-(((1R,2S,3R,4R)-2,3-Dihydroxy-4-(hydroxymethyl)cyclopentyl)amino)-5-(6-methylpyridin-2-yl)-2-(piperidin-1-yl)pyrimidin-4(3H)-one.HCl] |
| 7.03 | Cc1csc(-c2c(N[C@@H]3C[C@H](CO)[C@@H](O)[C@H]3O)nc(N3CCC(C(F)(F)F)CC3)[nH]c2=O)n1 [Example 33, 6-(((1R,2S,3R,4R)-2,3-Dihydroxy-4-(hydroxymethyl)cyclopentyl)amino)-5-(4-methylthiazol-2-yl)-2-(4-(trifluoromethyl)piperidin-1-yl)pyrimidin-4(3H)-one.HCl] |
| 7.14 | CC(C)[C@H]1C[C@@H](Nc2nc(N3CCOCC3)[nH]c(=O)c2-c2nc3ccccc3s2)[C@H](O)[C@@H]1O [Example 42, 5-(Benzo[d]thiazol-2-yl)-6-((1R,2S,3R,4R)-2,3-dihydroxy-4-isopropylcyclopentylamino)-2-morpholinopyrimidin-4(3H)-one.HCl] |
| 7.19 | CC(C)(O)[C@H]1C[C@@H](Nc2nc(NC3CCC3)[nH]c(=O)c2-c2nc3ccccc3s2)[C@H](O)[C@@H]1O [Example 45, 5-(Benzo[d]thiazol-2-yl)-2-(cyclobutylamino)-6-((1R,2S,3R,4S)-2,3-dihydroxy-4-(2-hydroxypropan-2-yl)cyclopentylamino)pyrimidin-4(3H)-one.HCl] |
| 7.58 | Cc1csc(-c2c(N[C@@H]3C[C@H](CO)[C@@H](O)[C@H]3O)nc(N3CCOCC3)[nH]c2=O)n1 [Example 32, 6-(((1R,2S,3R,4R)-2,3-Dihydroxy-4-(hydroxymethyl)cyclopentyl)amino)-5-(4-methylthiazol-2-yl)-2-morpholinopyrimidin-4(3H)-one.HCl] |
| 8.30 | C[C@H]1C[C@@H](Nc2nc(N3CCOCC3)[nH]c(=O)c2-c2ccc3ccccc3n2)[C@H](O)[C@@H]1O [Example 46, 6-((1R,2S,3R,4S)-2,3-Dihydroxy-4-methylcyclopentylamino)-2-morpholino-5-(quinolin-2-yl)pyrimidin-4(3H)-one.HCl] |

Reference: patent US9221809B2 (MERCK SHARP & DOHME CORP., priority 2011, dated 2015)
